Data reported in patent publication US20240325544A1, “CATIONIC LIPID FOR COVALENT MODIFICATION OF PEPTIDES” (PharmalN Corporation, priority 2023, published 2024).
Like-named read-outs stand apart in the source and are kept apart here. Marks after values point to notes of the source that are not given here. Bridge positions count the residues as written; N and C are the ends. Square brackets hold non-standard residues; d marks the D form. Peptide text beside a SMILES is read from it. * marks the point of attachment. Palmitoyl = CCCCCCCCCCCCCCCC(=O)*; Dap = NC[C@H](N)C(=O)O; AEEA = NCCOCCOCC(=O)O

Key:
[1] = Plasma concentration of respective natriuretic peptide by ELISA after SC bolus in CD-1 mice (pharmacokinetics, Table 3); conditions: male, CD-1, mouse, in vivo
Method: (§1) The test articles were formulated or dissolved in sterile water for injection on the same day of administration. […] Blood samples were collected via retro-orbital bleed at 2- and 6-hours post-injection, with two bleedings per animal at two different timepoints. The samples were collected in K2EDTA tubes, processed by centrifugation (2000×g; 15 m 4 eC within 30 minutes after collection), and the resulting plasma samples were stored at −80° C. Biochemical analysis: The plasma concentration of the respective natriuretic peptide was analyzed using commercially available ELISA kits from Phoenix Pharmaceuticals (Burlingame, CA): ANP ELISA (cat #EKE-005-06), BNP ELISA (cat #EKE-011-03), and CNP ELISA (cat #EKE-012-03). […] Plasma cGMP was analyzed using a commercially available kit from Abcam (ab133052, Waltham, MA).

[2] = system: cGMP; assay: Plasma cGMP after SC bolus of natriuretic peptides in CD-1 mice (pharmacodynamics, Table 3); assay type: in vivo; conditions: SC bolus 1.0 mg/kg (≤0.45 μmol/kg), baseline 10 +/−8 pmol/ml, n = 3-5
Method: as §1

level at 2 h ([1]; sc, 1 mg/kg) [ng/mL]	level at 6 h ([1]; sc, 1 mg/kg) [ng/mL]	Compound	Plasma concentration of cGMP, 2 hr [2]	Plasma concentration of cGMP, 6 hr [2]	level at 2 h ([1]; mice, SC bolus 1.0 mg/kg (≤0.45 μmol/kg), 2 hr, ELISA, n = 3-5, read-out: Plasma concentration of respective Natriuretic Peptide, ANP, BNP, or CNP, 2 hr) [ng/mL]	level at 6 h ([1]; mice, SC bolus 1.0 mg/kg (≤0.45 μmol/kg), 6 hr, ELISA, n = 3-5, read-out: Plasma concentration of respective Natriuretic Peptide, ANP, BNP, or CNP, 6 hr) [ng/mL]
26.1	25	CCCCCCCCCCCCCCCC(=O)NCCOCCOCC(=O)NCCOCCOCC(=O)NCCOCCOCC(=O)N[C@@H](CN)C(=O)NCC(=O)N[C@@H](CC(C)C)C(=O)N[C@@H](CO)C(=O)N[C@@H](CCCCN)C(=O)NCC(=O)N[C@H]1CSSC[C@@H](C(=O)O)NC(=O)CNC(=O)[C@H](CC(C)C)NC(=O)CNC(=O)[C@H](CO)NC(=O)[C@H](CCC(N)=O)NC(=O)[C@H](CO)NC(=O)CNC(=O)[C@H]([C@@H](C)CC)NC(=O)[C@H](CCCNC(=N)N)NC(=O)[C@H](CC(=O)O)NC(=O)[C@H](CC(C)C)NC(=O)[C@H](CCCCN)NC(=O)[C@H](CC(C)C)NC(=O)CNC(=O)[C@H](Cc2ccccc2)NC1=O [SEQ ID NO: 42] ({Palmitoyl-AEEA-AEEA-AEEA}-[Dap]GLSKGCFGLKLDRIGSQSGLGC-OH; disulfide 7-23; C-terminus assumed)	110.21*** pmol/mL	46.90** pmol/mL		
29.2	16.8	CCCCCCCCCCCCCCCC(=O)NCCOCCOCC(=O)NCCOCCOCC(=O)NCCOCCOCC(=O)N[C@@H](CN)C(=O)N[C@@H](CN)C(=O)N[C@@H](CN)C(=O)NCC(=O)N[C@@H](CC(C)C)C(=O)N[C@@H](CO)C(=O)N[C@@H](CCCCN)C(=O)NCC(=O)N[C@H]1CSSC[C@@H](C(=O)O)NC(=O)CNC(=O)[C@H](CC(C)C)NC(=O)CNC(=O)[C@H](CO)NC(=O)[C@H](CCC(N)=O)NC(=O)[C@H](CO)NC(=O)CNC(=O)[C@H]([C@@H](C)CC)NC(=O)[C@H](CCCNC(=N)N)NC(=O)[C@H](CC(=O)O)NC(=O)[C@H](CC(C)C)NC(=O)[C@H](CCCCN)NC(=O)[C@H](CC(C)C)NC(=O)CNC(=O)[C@H](Cc2ccccc2)NC1=O [SEQ ID NO: 43] ({Palmitoyl-AEEA-AEEA-AEEA}-[Dap][Dap][Dap]GLSKGCFGLKLDRIGSQSGLGC-OH; disulfide 9-25; C-terminus assumed)	114.85**** pmol/mL	93.39**** pmol/mL		
		CC[C@H](C)[C@@H]1NC(=O)[C@H](CCCNC(=N)N)NC(=O)[C@H](CC(=O)O)NC(=O)[C@H](CCSC)NC(=O)[C@H](CCCCN)NC(=O)[C@H](CCCNC(=N)N)NC(=O)CNC(=O)[C@H](Cc2ccccc2)NC(=O)[C@@H](NC(=O)CNC(=O)[C@H](CO)NC(=O)CNC(=O)[C@H](CCC(N)=O)NC(=O)[C@@H](NC(=O)[C@H](CCSC)NC(=O)[C@H](CCCCN)NC(=O)[C@@H]2CCCN2C(=O)[C@@H](N)CO)C(C)C)CSSC[C@@H](C(=O)N[C@@H](CCCCN)C(=O)N[C@H](C(=O)N[C@@H](CC(C)C)C(=O)N[C@@H](CCCNC(=N)N)C(=O)N[C@@H](CCCNC(=N)N)C(=O)N[C@@H](Cc2c[nH]cn2)C(=O)O)C(C)C)NC(=O)CNC(=O)[C@H](CC(C)C)NC(=O)CNC(=O)[C@H](CO)NC(=O)[C@H](CO)NC(=O)[C@H](CO)NC(=O)[C@H](CO)NC1=O [SEQ ID NO: 48, reference compound]	10.57 pmol/mL	8.48 pmol/mL	23.3	30.6
